{"source": "patent US9320798B2", "about": "“Lipid delivery formulations” (Dicerna Pharmaceuticals, Inc., priority 2010, dated 2016)", "origin": "cited, not measured here", "system": "TLR4", "conditions": "Numata et al. PNAS USA 107: 320-325; Abate et al., J Lipid Res 51: 334-344", "data": [{"smiles": "CCCCCCCCCCCCCCCC(=O)OC[C@H](COP(=O)([O-])OCC[N+](C)(C)C)OC(=O)CCCCCCCCCCCCCCC", "note": "[DPPC, dipalmitoylphosphatidylcholine]", "values": [{"measurement": "TLR4 activation", "result": "capable of disrupting TLR4 activation"}]}, {"smiles": "CCCCCCCC/C=C\\CCCCCCCC(=O)O[C@H](COC(=O)CCCCCCCCCCCCCCC)COP(=O)(O)OCC(O)CO", "note": "(some centres unmarked) [POPG, palmitoyl-oleoyl-phosphatidylglycerol]", "values": [{"measurement": "TLR4 activation", "result": "capable of disrupting TLR4 activation"}]}]}
